Measurements as given in US20230015949A1, “NEISSERIA TREATMENT USING CANNABINOIDS” (priority 2019, published 2023).
In brackets after ≈: the same amount, converted by molar mass. Read-outs that look alike come from different tables or passages of the source.

How the values were obtained:
Neisseria gonorrhoeae = test: Broth microdilution MIC assay, 30 isolates (Example 2); assay type: cell-based
Procedure: In this study, the in vitro spectrum of activity of CBD was determined against 30 isolates comprised of reference strains from the WHO, isolates from the CDC antibiotic resistance bank, and clinical isolates from the Micromyx (MMX) repository, with different resistance phenotypes. Assays were conducted following guidelines recommended by the Clinical and Laboratory Standards Institute (CLSI; 1, 2) with the exception that broth microdilution was used instead of agar dilution.
Stock solutions of all compounds were prepared on the day of testing using solvents recommended by CLSI. Stock solutions of all compounds were made at 101× the final testing concentration. CBD was supplied by Cerilliant (Round Rock, Tex.) as a 1 mg/mL methanolic solution which was stored at −20° C. after receipt. Prior to testing, using a 5 mL aliquot of the CBD methanolic solution, the methanol was dried off and the residual CBD was resuspended in 774 μL DMSO resulting in a 6.464 mg/mL solution.
The test organisms evaluated in this study consisted of Neisseria gonorrhoeae isolates from the Micromyx repository and reference isolates from the American Type Culture Collection (ATCC; Manassas, Va.), Centers for Disease Control and Prevention (CDC; Atlanta, Ga.) or the National Collection of Type Cultures (NCTC; Public Health England, Salisbury, UK). Upon initial receipt at Micromyx, the organisms were sub-cultured onto an appropriate agar medium.
(§1) Following incubation, colonies were harvested from these plates and cell suspensions prepared and frozen at −80° C. with a cryoprotectant. Prior to testing, N. gonorrhoeae isolates were streaked onto Chocolate Agar [Becton Dickinson, (BD), Sparks, Md.; Lot No. 922807]; Staphylococcus aureus ATCC 29213 tested for quality control (QC) purposes was streaked onto Trypticase Soy Agar with 5% Sheep Blood (TSA II; BD; Lot No. 9219399).
For N. gonorrhoeae, a modified medium described by the ATCC as capable of supporting the growth of N. gonorrhoeae (Neisseria peptone medium) was used for the broth microdilution MIC assay. This medium contained 15 g Oxoid Special Peptone (Lot No. 1280296; Oxoid, Hampshire, UK), 1 g corn starch (Lot No. AD-13344-14; Ward's Science; Rochester, N.Y.), 5 g NaCl (Lot No. 57897; VWR, Radnor, Pa.), 4 g K2HPO4 (Lot No. SLBT7061; Sigma), and 1 g KH2PO4 (Lot No. SLBC1921V; Sigma). After autoclaving, the medium was centrifuged at 5,000×g for 10 min, the supernatant was passed through a 0.45 μm filter, and IsoVitaleX supplement (Lot No. 8323954; BD) was added at 1% (v/v).
(§2) MIC values were determined using a broth microdilution procedure described by CLSI (1, 2). Automated liquid handlers (Multidrop 384, Labsystems, Helsinki, Finland; Biomek 2000 and Biomek FX, Beckman Coulter, Fullerton Calif.) were used to conduct serial dilutions and liquid transfers.
(§3) To prepare the drug mother plates, which would provide the serial drug dilutions for the replicate daughter plates, the wells of columns 2 through 12 of standard 96-well microdilution plates (Costar 3795) were filled with 150 μl of the designated diluent for each row of drug. The test articles and comparator compounds (300 μl at 100× the highest concentration to be tested) were dispensed into the appropriate wells in column 1. The Biomek 2000 was then used to make 2-fold serial dilutions in the mother plates from column 1 through column 11. The wells of column 12 contained no drug and served as the organism growth control wells for the assay.
(§4) The daughter plates were loaded with 190 μL per well of the appropriate test medium for the tested organism using the Multidrop 384. The daughter plates were completed on the Biomek FX instrument which transferred 2 μL of drug solution from each well of a mother plate to the corresponding well of each daughter plate in a single step. Daughter plates for the testing of anaerobes were allowed to pre-reduce in the Bactron II anaerobe chamber for 2 hr prior to inoculation.

[1] = tested on: Staphylococcus aureus ATCC 29213; test: Broth microdilution MIC assay, quality control strain (Example 2); assay type: cell-based; settings: ATCC29213, S. aureus ATCC 29213 (QC), CAMHB
Procedure: as §1
Cation-adjusted Mueller Hinton broth (CAMHB; BD; Lot No. 9019592) was used for MIC testing of S. aureus ATCC 29213 for QC purposes.
as §2, §3, §4
A standardized inoculum of each test organism was prepared per CLSI methods (1, 2). The inoculum for each organism was dispensed into sterile reservoirs divided by length (Beckman Coulter), and the Biomek 2000 was used to inoculate the plates. Daughter plates were placed on the Biomek 2000 work surface in reverse orientation so that inoculation took place from low to high drug concentration. Anaerobic organisms were inoculated by hand in the Bactron II anaerobic chamber. Bacterial plates were then inoculated with 10 μL of the inoculum resulting in a final cell density of approximately 5×10^5 CFU/mL.
Plates were stacked 3 to 4 high, covered with a lid on the top plate and placed in plastic bags. […] The MIC was read and recorded as the lowest concentration of drug that inhibited visible growth of the organism.

[2] = 30 isolates of N. gonorrhoeae, broth microdilution
[3] = 30 isolates of N. gonorrhoeae, broth microdilution, MIC distribution
[4] = 30 isolates, broth dilution assay, MIC distribution (Table 6)

In the case of CO/N=C(\C(=O)N[C@@H]1C(=O)N2C(C(=O)O)=C(CSc3nc(=O)c(=O)[nH]n3C)CS[C@H]12)c1csc(N)n1 [CRO, ceftriaxone], the MIC50 (Neisseria gonorrhoeae; [2]) is reported as no more than 0.008 µg/mL, the “MIC Range” value (Neisseria gonorrhoeae; [2]) is reported as ≤0.008 − 1 μg/mL and the “Number of isolates at MIC value 0.015 μg/mL” value (Neisseria gonorrhoeae; [3]) is reported as 5. The “Number of isolates at MIC value 0.03 μg/mL” value (Neisseria gonorrhoeae; [3]) was 2, the “Number of isolates at MIC value 0.06 μg/mL” value (Neisseria gonorrhoeae; [3]) was 1 and the “Number of isolates at MIC value 0.5 μg/mL” value (Neisseria gonorrhoeae; [3]) was 1. For the same molecule, the “Number of isolates at MIC value 1 μg/mL” value (Neisseria gonorrhoeae; [3]) was 1, the “Number of isolates at MIC value 2 μg/mL” value (Neisseria gonorrhoeae; [3]) was 0 and the “Number of isolates at MIC value 4 μg/mL” value (Neisseria gonorrhoeae; [3]) was 0. The “Number of isolates at MIC value 8 μg/mL” value (Neisseria gonorrhoeae; [3]) was 0, the “Number of isolates at MIC value <0.008 μg/mL” value (Neisseria gonorrhoeae; [3]) was 20 and the “Number of isolates at MIC value >8 μg/mL” value (Neisseria gonorrhoeae; [3]) was 0. The “Number of isolates at MIC value […]” value (Neisseria gonorrhoeae; [3]) was 0, the “MIC Range” value (Neisseria gonorrhoeae; 30 isolates of N. gonorrhoeae, broth microdilution, listed as ceftriaxone) was no more than 0.008 to 1 µg/mL and the “Number of isolates at MIC 0.08 μg mL^−1” value (Neisseria gonorrhoeae; [4]) was 0. For the same molecule, the “Number of isolates at MIC ≤0.004 μg mL^−1” value (Neisseria gonorrhoeae; [4]) was 20, the MIC (Neisseria gonorrhoeae; N. gonorrhoeae ATCC 49226 (QC), broth microdilution) was “£0.008 μg/mL” and the MIC (Neisseria gonorrhoeae; Neisseria gonorrhoeae, ATCC49226, N. gonorrhoeae ATCC 49226 (QC), broth microdilution, read-out: MIC) was no more than 0.008 µg/mL. The MIC (Neisseria gonorrhoeae; Neisseria gonorrhoeae, N. gonorrhoeae CDC 0165 (CIP-R, AZI MIC 1), broth microdilution, read-out: MIC) was 0.015 µg/mL (≈ 0.027 µM), the MIC (Neisseria gonorrhoeae; Neisseria gonorrhoeae, N. gonorrhoeae CDC 0166 (CIP-R, AZI MIC 1), broth microdilution, read-out: MIC) was 0.015 µg/mL (≈ 0.027 µM) and the MIC (Neisseria gonorrhoeae; Neisseria gonorrhoeae, N. gonorrhoeae CDC 0167 (CIP-S, AZI MIC 8), broth microdilution, read-out: MIC) was no more than 0.008 µg/mL. For the same molecule, the MIC (Neisseria gonorrhoeae; Neisseria gonorrhoeae, N. gonorrhoeae CDC 0172 (CIP-R, AZI MIC 0.5), broth microdilution, read-out: MIC) was no more than 0.008 µg/mL, the MIC (Neisseria gonorrhoeae; Neisseria gonorrhoeae, N. gonorrhoeae CDC 0175 (CIP-S, AZI MIC 16), broth microdilution, read-out: MIC) was no more than 0.008 µg/mL and the MIC (Neisseria gonorrhoeae; Neisseria gonorrhoeae, N. gonorrhoeae CDC 0177 (CIP-S, AZI MIC 2), broth microdilution, read-out: MIC) was no more than 0.008 µg/mL. For the same molecule, the MIC (Neisseria gonorrhoeae; Neisseria gonorrhoeae, N. gonorrhoeae CDC 0181 (CIP-S, AZI MIC 256), broth microdilution, read-out: MIC) was no more than 0.008 µg/mL, the MIC (Neisseria gonorrhoeae; Neisseria gonorrhoeae, N. gonorrhoeae CDC 0194 (CRO-NS, CIP-S, AZI MIC 0.5), broth microdilution, read-out: MIC) was 0.03 µg/mL (≈ 0.0541 µM) and the MIC (Neisseria gonorrhoeae; Neisseria gonorrhoeae, N. gonorrhoeae MMX 6921 (CIP-R), broth microdilution, read-out: MIC) was no more than 0.008 µg/mL. For the same molecule, the MIC (Neisseria gonorrhoeae; Neisseria gonorrhoeae, N. gonorrhoeae MMX 6938 (CIP-S), broth microdilution, read-out: MIC) was no more than 0.008 µg/mL, the MIC (Neisseria gonorrhoeae; Neisseria gonorrhoeae, N. gonorrhoeae MMX 10409 (CIP-R), broth microdilution, read-out: MIC) was 0.015 µg/mL (≈ 0.027 µM) and the MIC (Neisseria gonorrhoeae; Neisseria gonorrhoeae, N. gonorrhoeae MMX 10410 (CIP-S), broth microdilution, read-out: MIC) was no more than 0.008 µg/mL. It also gave an MIC (Neisseria gonorrhoeae; Neisseria gonorrhoeae, N. gonorrhoeae MMX 10447 (CIP-S), broth microdilution, read-out: MIC) of no more than 0.008 µg/mL, an MIC (Neisseria gonorrhoeae; Neisseria gonorrhoeae, N. gonorrhoeae MMX 10450 (CIP-S), broth microdilution, read-out: MIC) of no more than 0.008 µg/mL and an MIC (Neisseria gonorrhoeae; Neisseria gonorrhoeae, N. gonorrhoeae MMX 10452 (CIP-R), broth microdilution, read-out: MIC) of no more than 0.008 µg/mL. The MIC (Neisseria gonorrhoeae; Neisseria gonorrhoeae, N. gonorrhoeae MMX 10454 (CIP-R), broth microdilution, read-out: MIC) was 0.015 µg/mL (≈ 0.027 µM), the MIC (Neisseria gonorrhoeae; Neisseria gonorrhoeae, NCTC13477, N. gonorrhoeae NCTC 13477 (WHO F; CIP-S, AZI MIC […]), broth microdilution, read-out: MIC) was no more than 0.008 µg/mL and the MIC (Neisseria gonorrhoeae; Neisseria gonorrhoeae, NCTC13478, N. gonorrhoeae NCTC 13478 (WHO G; CIP-I, AZI MIC […]), broth microdilution, read-out: MIC) was no more than 0.008 µg/mL. It also gave an MIC (Neisseria gonorrhoeae; Neisseria gonorrhoeae, NCTC13479, N. gonorrhoeae NCTC 13479 (WHO K; CIP-R, AZI MIC […]), broth microdilution, read-out: MIC) of 0.03 µg/mL (≈ 0.0541 µM), an MIC (Neisseria gonorrhoeae; Neisseria gonorrhoeae, NCTC13480, N. gonorrhoeae NCTC 13480 (WHO L; CIP-R, AZI MIC 0.5), broth microdilution, read-out: MIC) of 0.06 µg/mL (≈ 0.108 µM) and an MIC (Neisseria gonorrhoeae; Neisseria gonorrhoeae, NCTC13481, N. gonorrhoeae NCTC 13481 (WHO M; CIP-R, AZI MIC […]), broth microdilution, read-out: MIC) of no more than 0.008 µg/mL. It also gave an MIC (Neisseria gonorrhoeae; Neisseria gonorrhoeae, NCTC13482, N. gonorrhoeae NCTC 13482 (WHO N; CIP-R, AZI MIC […]), broth microdilution, read-out: MIC) of no more than 0.008 µg/mL, an MIC (Neisseria gonorrhoeae; Neisseria gonorrhoeae, NCTC13483, N. gonorrhoeae NCTC 13483 (WHO O; CIP-S, AZI MIC […]), broth microdilution, read-out: MIC) of no more than 0.008 µg/mL and an MIC (Neisseria gonorrhoeae; Neisseria gonorrhoeae, NCTC13484, N. gonorrhoeae NCTC 13484 (WHO P; CIP-S, AZI MIC 4), broth microdilution, read-out: MIC) of no more than 0.008 µg/mL. It also gave an MIC (Neisseria gonorrhoeae; Neisseria gonorrhoeae, NCTC13817, N. gonorrhoeae NCTC 13817 (WHO U; CIP-S, AZI MIC 4), broth microdilution, read-out: MIC) of no more than 0.008 µg/mL, an MIC (Neisseria gonorrhoeae; Neisseria gonorrhoeae, NCTC13818, N. gonorrhoeae NCTC 13818 (WHO V; CIP-R, AZI MIC >256), broth microdilution, read-out: MIC) of no more than 0.008 µg/mL and an MIC (Neisseria gonorrhoeae; Neisseria gonorrhoeae, NCTC13819, N. gonorrhoeae NCTC 13819 (WHO W; CIP-R, AZI MIC 0.5), broth microdilution, read-out: MIC) of 0.015 µg/mL (≈ 0.027 µM). It also gave an MIC (Neisseria gonorrhoeae; Neisseria gonorrhoeae, NCTC13820, N. gonorrhoeae NCTC 13820 (WHO X; CRO-NS, CIP-R, AZI MIC 0.5), broth microdilution, read-out: MIC) of 1 µg/mL (≈ 1.8 µM), an MIC (Neisseria gonorrhoeae; Neisseria gonorrhoeae, NCTC13821, N. gonorrhoeae NCTC 13821 (WHO Y; CIP-R, AZI MIC 1), broth microdilution, read-out: MIC) of 0.5 µg/mL (≈ 0.902 µM) and an MIC50 (Neisseria gonorrhoeae; Neisseria gonorrhoeae, 30 isolates of N. gonorrhoeae, broth microdilution, read-out: MIC50) of no more than 0.008 µg/mL. It also gave an MIC90 (Neisseria gonorrhoeae; Neisseria gonorrhoeae, 30 isolates of N. gonorrhoeae, broth microdilution, read-out: MIC90) of 0.03 µg/mL (≈ 0.0541 µM), an MIC (Neisseria gonorrhoeae; Neisseria gonorrhoeae, 30 isolates of N. gonorrhoeae, broth microdilution, read-out: MIC Mode) of no more than 0.008 µg/mL and an MIC [1] of 2 µg/mL (≈ 3.61 µM).
